This note sets out measurements from patent publication US20090170886A1 (Pfizer Inc, priority 2005, published 2009).

Molecules are shown by their SMILES. Positions count from the first letter of the chain named. Read-outs that look alike come from different tables or passages of the source. Where only a bound is given, the exact number is not on record here.

Test [1] deals with T1, androgen receptor in MDA-MB453-MMTV clone 54-19 cells (Homo sapiens, UniProt P10275).
T1 sequence (P10275 1-920 Q868H): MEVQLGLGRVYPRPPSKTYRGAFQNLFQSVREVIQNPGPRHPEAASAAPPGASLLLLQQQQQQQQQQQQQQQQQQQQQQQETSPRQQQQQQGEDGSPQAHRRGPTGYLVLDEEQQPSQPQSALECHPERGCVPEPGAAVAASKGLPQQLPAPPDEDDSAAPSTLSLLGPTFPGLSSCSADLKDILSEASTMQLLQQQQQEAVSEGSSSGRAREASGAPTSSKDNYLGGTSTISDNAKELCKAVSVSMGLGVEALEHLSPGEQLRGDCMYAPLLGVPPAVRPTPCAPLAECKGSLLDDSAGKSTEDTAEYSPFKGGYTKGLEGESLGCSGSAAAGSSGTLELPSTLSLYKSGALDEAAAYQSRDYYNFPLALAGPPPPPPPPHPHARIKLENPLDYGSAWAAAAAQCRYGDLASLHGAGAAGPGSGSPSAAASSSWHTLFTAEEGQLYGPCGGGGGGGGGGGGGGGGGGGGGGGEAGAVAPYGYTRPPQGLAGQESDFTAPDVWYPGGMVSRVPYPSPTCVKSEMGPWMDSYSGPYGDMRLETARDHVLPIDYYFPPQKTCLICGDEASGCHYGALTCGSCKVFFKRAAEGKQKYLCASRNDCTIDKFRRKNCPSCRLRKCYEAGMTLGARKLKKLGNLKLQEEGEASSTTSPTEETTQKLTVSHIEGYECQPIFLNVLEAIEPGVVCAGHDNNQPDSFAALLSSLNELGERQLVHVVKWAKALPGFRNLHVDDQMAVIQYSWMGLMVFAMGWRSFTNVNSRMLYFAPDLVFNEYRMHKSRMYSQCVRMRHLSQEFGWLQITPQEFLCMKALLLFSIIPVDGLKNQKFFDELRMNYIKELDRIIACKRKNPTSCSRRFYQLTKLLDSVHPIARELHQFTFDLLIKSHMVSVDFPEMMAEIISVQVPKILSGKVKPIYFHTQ
The experiment in a line: AR Antagonist Cell Assay (MMTV-luciferase reporter, DHT-induced). The conditions noted are these: MDA-MB453-MMTV clone 54-19, 100 pM DHT, 17 hr; mean of multiple tests. In kind it is cell-based. As for the experimental part:
The compounds ability to antagonize the effects of androgen on the androgen receptor were determined in a whole cell assay as described immediately below.
Cell line: MDA-MB453-MMTV clone 54-19. This cell line is a stable transfected cell line with MDA-MB453 cell background (a human breast tumor cell line expressing androgen receptor). A MMTV minimal promoter containing ARE was first cloned in front of a firefly luciferase reporter gene. Then the cascade was cloned into transfection vector pUV120puro. Electroporation method was used for transfecting MDA-MB-453 cell. Puromycin resistant stable cell line was selected.
Culture medium: DMEM (high glucose, Gibco cat #: 11960-044), 10% FBS, and 1% L-glutamine
Plating medium: DMEM (phenol red free), 10% charcoal treated HyClone serum, 1% L-glutamine
Assay medium: DMEM (phenol red free), 1% charcoal treated HyClone serum, 1% L-glutamine, and 1% penicillin/streptomycin
3× luciferase buffer: 2% beta-mercaptoethanol, 0.6% ATP, 0.0135% luciferine in cell lysis buffer
Cells are maintained in culture medium, splitting cells when they reach 80-90% confluence. To test compounds, 10,000 cells/well are plated to opaque 96 cell culture plate in 100 ul/well plating medium, culture for overnight at 37° C. in cell culture incubator. Carefully remove plating medium, then add 80 ul/well of pre-warmed assay medium, add 10 ul/well testing compound (final concentration at) 1000 nM, 200 nM, 40 nM, 8 nM, 1.6 nM, and 0.32 nM), incubate at 37° C. for 30 minutes. Add 10 ul/well freshly prepared DHT (final concentration at 100 pM) to each well, incubate at 37° C. for 17 hr (overnight). Add 50 ul/well 3× luciferase buffer, incubate at room temperature for 5 minutes, then count on Luminometer. The fold induction over background by 100 pM DHT in the absence of testing compounds is standardized as 100% and experimental result is expressed as percentage of inhibition by testing compounds.
The results are reported as the mean of multiple tests as described below (the numbers of tests are indicated in the footnote). ND denotes that the compound was not tested.
Background: A reporter such as luciferase makes a cellular process visible.

Test [2] concerns the target T2, hAR (human androgen receptor, baculovirus/Sf9 generated extracts) (Homo sapiens, UniProt P10275).
T2 construct: made in house; host or cells: baculovirus/Sf9 insect cells (crude extract)
T2 sequence (P10275 1-920): T1 sequence (P10275 1-920 Q868H) with H868Q
In words: AR Binding Assay (competitive binding with 3H-DHT tracer). The conditions noted are these: 1 nM 3H-DHT, one hour at 4° C., mean of multiple tests. As for the experimental part: The compounds of Formula I have affinity for the androgen receptor. […] The description below describes how the assay was carried out.
Competitive binding analysis was performed on baculovirus/Sf9 generated hAR extracts in the presence or absence of different concentrations of test agent and a fixed concentration of ^3H-dihydrotestosterone (^3H-DHT) as tracer. This binding assay method is a modification of a protocol previously described (Liao S., et. al., J. Steroid Biochem., 20:11-17, 1984). Briefly, progressively decreasing concentrations of compounds are incubated in the presence of hAR extract (Chang et al., P.N.A.S., Vol. 89, pp. 5546-5950, 1992), hydroxylapatite, and 1 nM ^3H-DHT for one hour at 4° C. Subsequently, the binding reactions are washed three times to completely remove excess unbound ^3H-DHT. hAR bound ^3H-DHT levels are determined in the presence of compounds (i.e. competitive binding) and compared to levels bound when no competitor is present (i.e. maximum binding). Compound binding affinity to the hAR is expressed as the concentration of compound at which one half of the maximum binding is inhibited. Table II below provides the results that were obtained for selected compounds (reported data is the mean of multiple tests as shown below).

Where [3] appears, read: hAR extract, read-out: AR Binding IC50.

As for `CC(Oc1ccc(C#N)c(C(F)(F)F)c1)c1ccccc1C(F)(F)F` (centres unmarked) [Example 31, 2-Trifluoromethyl-4-[1-(2-trifluoromethyl-phenyl)-ethoxy]-benzonitrile], the IC50 (usually the concentration at which inhibition is half-maximal) stood at 0.398 µM in test [1] and 0.146 µM in test [2] (setting [3]).

On to `C[C@@H](Oc1ccc(C#N)c(C(F)(F)F)c1)c1ccccn1` [Example 36, (R)-(+)-4-(1-Pyridin-2-yl-ethoxy)-2-trifluoromethyl-benzonitrile], for which the IC50 is 0.028 µM in test [1] and 0.054 µM in test [2] (AR Binding IC50, hAR extract).

In the case of `CC(C)(Oc1ccc(C#N)cc1Cl)c1ccccc1` [Example 37, 3-Chloro-4-(1-methyl-1-phenyl-ethoxy)-benzonitrile], the IC50 in test [1] was > 1 µM; in test [2] (setting [3]) it was 0.184 µM.

Take `N#Cc1ccc(OCc2cccc(O)c2)c(Cl)c1` [Example 41, 3-Chloro-4-(3-hydroxy-benzyloxy)-benzonitrile]: the IC50 is 0.286 µM in test [1] and 0.076 µM in test [2] (setting [3]).

For `CCCCCCC(Oc1ccc(C#N)c(C(F)(F)F)c1)c1ccccc1` (centres unmarked) [Example 46, 4-(1-Phenyl-heptyloxy)-2-trifluoromethyl-benzonitrile], the IC50 is > 1 µM in test [1] and 0.204 µM in test [2] (setting [3]).

Consider `CCC(Oc1ccc(C#N)c(C(F)(F)F)c1)c1ccccc1` (centres unmarked) [Example 48, 4-(1-Phenyl-propoxy)-2-trifluoromethyl-benzonitrile], for which the half-maximal inhibitory concentration (IC50) in test [1] was 0.345 µM; in test [2] (AR Binding IC50, hAR extract), 0.038 µM.

As to `N#Cc1ccc(OCc2ccccc2)cc1C(F)(F)F` [Example 50, 4-Benzyloxy-2-trifluoromethyl-benzonitrile], the results for the IC50 in test [1] and in test [2] (setting [3]) were 0.508 µM and 0.174 µM, respectively.

For the compound `Cc1cccc(C(C)Oc2ccc(C#N)c(C(F)(F)F)c2)c1` (centres unmarked) [Example 51, 4-(1-m-Tolyl-ethoxy)-2-trifluoromethyl-benzonitrile], the IC50 in test [1] was > 1 µM; in test [2] (AR Binding IC50, hAR extract), 0.108 µM.

Turning to `CC(Oc1ccc(C#N)c(C(F)(F)F)c1)c1ccccc1` (centres unmarked) [Example 53, 4-(1-Phenyl-ethoxy)-2-trifluoromethyl-benzonitrile], the IC50 in test [1] came to 0.055 µM; in test [2] (AR Binding IC50, hAR extract) it was 0.008 µM.

Take `CCOc1ccccc1COc1ccc(C#N)c(C(F)(F)F)c1` [Example 55, 4-(2-Ethoxy-benzyloxy)-2-trifluoromethyl-benzonitrile]: the IC50 in test [1] is > 1 µM; in test [2] (setting [3]), 0.125 µM.

On to `C#CC(Oc1ccc(C#N)c(C(F)(F)F)c1)c1ccccc1` (centres unmarked) [Example 56, 4-(1-Phenyl-prop-2-ynyloxy)-2-trifluoromethyl-benzonitrile], for which the IC50 is 0.02 µM in test [1] and 0.074 µM in test [2] (AR Binding IC50, hAR extract).

As to `CC(Oc1ccc(C#N)cc1Cl)c1ccccc1` (centres unmarked) [Example 57, 3-Chloro-4-(1-phenyl-ethoxy)-benzonitrile], the IC50 stood at 0.086 µM in test [1] and 0.24 µM in test [2] (AR Binding IC50, hAR extract).

As for `CCC(C)(Oc1ccc(C#N)c(Cl)c1)c1ccccc1` (centres unmarked) [Example 58, 2-Chloro-4-(1-methyl-1-phenyl-propoxy)-benzonitrile], the IC50 is > 1 µM in test [1] and 0.162 µM in test [2] (setting [3]).

For the compound `N#Cc1ccc(OCc2ccccc2)cc1Cl` [Example 59, 4-Benzyloxy-2-chloro-benzonitrile], the IC50 in test [1] stood at 0.108 µM; in test [2] (setting [3]), 0.038 µM.

As to `Cc1cccc(C(C)Oc2ccc(C#N)c(Cl)c2)c1` (centres unmarked) [Example 60, 2-Chloro-4-(1-m-tolyl-ethoxy)-benzonitrile], the IC50 in test [1] was > 1 µM; in test [2] (AR Binding IC50, hAR extract), 0.074 µM.

Regarding `Cc1ccc(C)c(C(C)Oc2ccc(C#N)c(Cl)c2)c1` (centres unmarked) [Example 61, 2-Chloro-4-[1-(2,5-dimethyl-phenyl)-ethoxy]-benzonitrile], the IC50 in test [1] is > 1 µM; in test [2] (AR Binding IC50, hAR extract) it was 0.061 µM.

As to `Cc1ccccc1C(C)Oc1ccc(C#N)c(Cl)c1` (centres unmarked) [Example 62], the concentration for half-maximal inhibition (IC50) was determined as 0.464 µM in test [1] and 0.052 µM in test [2] (setting [3]).

`Cc1cccc(COc2ccc(C#N)c(Cl)c2)c1` [Example 64, 2-Chloro-4-(3-methyl-benzyloxy)-benzonitrile]: the 50% inhibitory concentration (IC50) was > 1 µM in test [1] and 0.074 µM in test [2] (AR Binding IC50, hAR extract).

`Cc1ccccc1COc1ccc(C#N)c(Cl)c1` [Example 65, 2-Chloro-4-(2-methyl-benzyloxy)-benzonitrile]: the IC50 in test [1] is > 1 µM; in test [2] (setting [3]), 0.129 µM.

As for `N#Cc1ccc(OCc2cccc(O)c2)cc1Cl` [Example 66, 2-Chloro-4-(3-hydroxy-benzyloxy)-benzonitrile], the IC50 was determined as 0.004 µM in test [1] and 0.011 µM in test [2] (AR Binding IC50, hAR extract).

For `COc1ccccc1COc1ccc(C#N)c(Cl)c1` [Example 67, 2-Chloro-4-(2-methoxy-benzyloxy)-benzonitrile], the IC50 in test [1] stood at 0.166 µM; in test [2] (AR Binding IC50, hAR extract), 0.099 µM.

In the case of `CCOc1ccccc1COc1ccc(C#N)c(Cl)c1` [Example 68, 2-Chloro-4-(2-ethoxy-benzyloxy)-benzonitrile], the IC50 was > 1 µM in test [1] and 0.213 µM in test [2] (setting [3]).
